Columns and labels:
mice treated with TNBS = test: Stool consistency in TNBS-induced murine model of colitis; assay type: in vivo; settings: oral administration (FIG. 13)
Description: The anal administration of trinitrobenzene sulphonic acid (TNBS) is typically used to produce intestinal blockage, resulting in poor stool consistency.

BDF1 mice = test: DSS-induced colitis in BDF-1 mice; assay type: in vivo; settings: 5% DSS, 80 mg/kg oral gavage daily (positive control)
Description: The cGMP pathway mediates the anti-inflammatory effects of cellular molecules such as nitric oxide and heme oxygenase-1. […] The anti-inflammatory effects of the GCC agonist SP-304 were evaluated in a murine model of ulcerative colitis, the DSS-induced colitis model.
Forty eight BDF1 mice were divided into 8 treatment groups (6 mice/group). One group was not exposed to DSS (untreated control) and groups […] were treated with 5% DSS in the drinking water. DSS was refreshed daily. All mice were weighed on day −1, and treated with the test materials beginning on day −1. 4 hrs post dosing on Day 0, DSS was placed in the drinking water of groups 2-8 and DSS remained in the water until the end of the study. The test agents were administered at 9 AM daily until day 7. Animals were treated with a single dose of test agents and the groups were as follows:
All doses were administered by oral gavage using a 0.1 ml dose per 10 g body weight. To avoid cage-to-cage variation, different treatment groups were housed in the same cage and animals were ear punched for identification purposes. Mice were sacrificed on day 7, 4-6 hrs post last dosing. […] All slides were scored in a blinded manner.
Five different sections of the tissue were examined for histopathological scoring and the scores were averaged for each mouse. The histopathology scores in FIG. 17 are expressed as an average of 6 mice.

## O=C(O)c1cc(/N=N/c2ccc(S(=O)(=O)Nc3ccccn3)cc2)ccc1O [Sulfasalazine]
Mice treated with TNBS
  stool consistency in mice treated with TNBS: restored normal stool consistency
BDF1 mice
  severity of inflammation in large intestine (histopathology score): considerably reduced
